{"source": "paper PMC4979471", "about": "(Cell Death Discovery, 2015)", "assay_in_all_cases": "Kinase selectivity, P33-radiolabeled assay", "assay_type_in_all_cases": "biochemical", "details_in_all_cases": "10 μM ATP", "key": {"CDK9/cyclin T1": {"molecular_target": "T1, CDK9/cyclin T1 (Homo sapiens, UniProt P50750)", "T1 construct": "purchased Reaction Biology Corp", "T1 sequence (P50750 whole entry)": "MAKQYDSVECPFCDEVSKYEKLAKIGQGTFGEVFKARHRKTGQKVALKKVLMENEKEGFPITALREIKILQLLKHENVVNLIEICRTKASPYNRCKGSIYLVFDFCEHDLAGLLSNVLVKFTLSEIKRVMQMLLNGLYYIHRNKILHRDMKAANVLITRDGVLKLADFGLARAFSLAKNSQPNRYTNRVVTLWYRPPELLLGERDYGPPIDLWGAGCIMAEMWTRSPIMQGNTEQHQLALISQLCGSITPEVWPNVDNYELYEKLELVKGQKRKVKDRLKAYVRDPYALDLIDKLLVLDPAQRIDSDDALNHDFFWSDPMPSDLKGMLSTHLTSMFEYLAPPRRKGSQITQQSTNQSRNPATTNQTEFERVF", "T1 sequence (O60563 whole entry partner)": "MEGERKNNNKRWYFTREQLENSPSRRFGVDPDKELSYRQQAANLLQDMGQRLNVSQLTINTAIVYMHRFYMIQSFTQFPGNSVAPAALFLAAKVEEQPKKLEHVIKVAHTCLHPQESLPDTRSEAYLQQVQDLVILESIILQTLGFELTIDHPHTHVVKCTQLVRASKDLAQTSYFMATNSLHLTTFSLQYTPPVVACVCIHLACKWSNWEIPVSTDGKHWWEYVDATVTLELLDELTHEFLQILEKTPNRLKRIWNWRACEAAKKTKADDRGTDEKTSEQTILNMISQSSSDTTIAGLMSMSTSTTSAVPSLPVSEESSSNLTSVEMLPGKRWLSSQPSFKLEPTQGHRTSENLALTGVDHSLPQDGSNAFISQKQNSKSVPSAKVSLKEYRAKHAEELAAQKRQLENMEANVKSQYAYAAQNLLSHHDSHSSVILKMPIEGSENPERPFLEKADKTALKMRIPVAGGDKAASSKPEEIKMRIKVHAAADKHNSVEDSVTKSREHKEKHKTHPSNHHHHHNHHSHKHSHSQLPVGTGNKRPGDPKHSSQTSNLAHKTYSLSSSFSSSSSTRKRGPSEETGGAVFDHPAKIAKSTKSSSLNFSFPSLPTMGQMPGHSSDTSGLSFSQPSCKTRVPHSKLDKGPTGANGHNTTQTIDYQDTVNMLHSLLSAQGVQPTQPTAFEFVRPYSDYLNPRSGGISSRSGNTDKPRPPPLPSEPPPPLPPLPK", "outline": "(§1)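 Percent residual kinase activity versus DMSO is reported. Conditions: compound at 10 μM, ATP at 10 μM, n = 2.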"}, "MUSK": {"molecular_target": "T2, MUSK (Homo sapiens, UniProt O15146)", "T2 construct": "purchased Reaction Biology Corp", "T2 sequence (O15146 24-869)": "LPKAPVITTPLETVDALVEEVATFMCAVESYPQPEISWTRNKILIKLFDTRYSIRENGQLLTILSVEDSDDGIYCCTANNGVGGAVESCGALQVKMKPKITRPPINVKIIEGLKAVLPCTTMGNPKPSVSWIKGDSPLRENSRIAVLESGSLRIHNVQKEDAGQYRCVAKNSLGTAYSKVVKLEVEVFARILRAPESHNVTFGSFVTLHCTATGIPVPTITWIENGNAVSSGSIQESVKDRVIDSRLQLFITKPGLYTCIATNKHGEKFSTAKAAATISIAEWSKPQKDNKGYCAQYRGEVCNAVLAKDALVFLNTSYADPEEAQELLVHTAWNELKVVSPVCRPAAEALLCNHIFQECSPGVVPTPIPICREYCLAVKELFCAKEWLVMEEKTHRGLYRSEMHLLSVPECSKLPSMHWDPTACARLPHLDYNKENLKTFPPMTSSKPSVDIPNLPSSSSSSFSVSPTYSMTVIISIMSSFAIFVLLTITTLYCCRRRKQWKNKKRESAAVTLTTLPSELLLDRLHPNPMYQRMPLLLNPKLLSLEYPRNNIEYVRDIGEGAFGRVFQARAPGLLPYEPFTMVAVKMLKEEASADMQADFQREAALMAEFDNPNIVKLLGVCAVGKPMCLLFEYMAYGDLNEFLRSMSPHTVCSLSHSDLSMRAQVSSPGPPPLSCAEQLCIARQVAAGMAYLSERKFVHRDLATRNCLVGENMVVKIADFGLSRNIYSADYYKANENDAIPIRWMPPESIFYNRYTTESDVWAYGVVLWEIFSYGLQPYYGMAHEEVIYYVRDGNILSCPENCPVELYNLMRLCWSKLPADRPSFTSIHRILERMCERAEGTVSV", "outline": "as §1"}, "TAOK3/JIK": {"molecular_target": "T3, TAOK3/JIK (Homo sapiens, UniProt Q9H2K8)", "T3 construct": "purchased Reaction Biology Corp", "T3 sequence (Q9H2K8 1-898)": "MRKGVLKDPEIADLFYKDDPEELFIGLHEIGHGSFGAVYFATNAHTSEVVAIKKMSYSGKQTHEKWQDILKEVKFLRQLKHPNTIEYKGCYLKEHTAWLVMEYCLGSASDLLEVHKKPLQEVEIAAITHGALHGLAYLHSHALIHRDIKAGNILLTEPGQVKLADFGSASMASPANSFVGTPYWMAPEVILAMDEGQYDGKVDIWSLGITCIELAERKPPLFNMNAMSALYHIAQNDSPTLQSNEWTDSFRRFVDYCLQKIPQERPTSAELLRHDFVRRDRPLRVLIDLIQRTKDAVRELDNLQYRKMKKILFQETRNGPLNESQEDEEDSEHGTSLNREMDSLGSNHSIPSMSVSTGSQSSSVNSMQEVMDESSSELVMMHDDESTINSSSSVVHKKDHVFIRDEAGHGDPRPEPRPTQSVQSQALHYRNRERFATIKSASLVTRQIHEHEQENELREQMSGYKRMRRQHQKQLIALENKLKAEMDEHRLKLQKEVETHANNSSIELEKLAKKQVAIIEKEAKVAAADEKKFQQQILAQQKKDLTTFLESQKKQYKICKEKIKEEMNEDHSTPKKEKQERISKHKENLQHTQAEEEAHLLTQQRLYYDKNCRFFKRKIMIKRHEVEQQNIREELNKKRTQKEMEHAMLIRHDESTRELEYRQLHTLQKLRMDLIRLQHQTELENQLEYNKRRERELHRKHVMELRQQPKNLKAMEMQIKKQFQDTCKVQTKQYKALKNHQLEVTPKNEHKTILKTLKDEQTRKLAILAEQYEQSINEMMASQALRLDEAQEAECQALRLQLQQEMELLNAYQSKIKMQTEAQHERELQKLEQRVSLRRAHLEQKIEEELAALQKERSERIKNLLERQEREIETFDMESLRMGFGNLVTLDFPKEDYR", "outline": "as §1"}, "TLK1": {"molecular_target": "T4, TLK1 (Homo sapiens, UniProt Q9UKI8)", "T4 construct": "purchased Reaction Biology Corp", "T4 sequence (Q9UKI8 1-766)": "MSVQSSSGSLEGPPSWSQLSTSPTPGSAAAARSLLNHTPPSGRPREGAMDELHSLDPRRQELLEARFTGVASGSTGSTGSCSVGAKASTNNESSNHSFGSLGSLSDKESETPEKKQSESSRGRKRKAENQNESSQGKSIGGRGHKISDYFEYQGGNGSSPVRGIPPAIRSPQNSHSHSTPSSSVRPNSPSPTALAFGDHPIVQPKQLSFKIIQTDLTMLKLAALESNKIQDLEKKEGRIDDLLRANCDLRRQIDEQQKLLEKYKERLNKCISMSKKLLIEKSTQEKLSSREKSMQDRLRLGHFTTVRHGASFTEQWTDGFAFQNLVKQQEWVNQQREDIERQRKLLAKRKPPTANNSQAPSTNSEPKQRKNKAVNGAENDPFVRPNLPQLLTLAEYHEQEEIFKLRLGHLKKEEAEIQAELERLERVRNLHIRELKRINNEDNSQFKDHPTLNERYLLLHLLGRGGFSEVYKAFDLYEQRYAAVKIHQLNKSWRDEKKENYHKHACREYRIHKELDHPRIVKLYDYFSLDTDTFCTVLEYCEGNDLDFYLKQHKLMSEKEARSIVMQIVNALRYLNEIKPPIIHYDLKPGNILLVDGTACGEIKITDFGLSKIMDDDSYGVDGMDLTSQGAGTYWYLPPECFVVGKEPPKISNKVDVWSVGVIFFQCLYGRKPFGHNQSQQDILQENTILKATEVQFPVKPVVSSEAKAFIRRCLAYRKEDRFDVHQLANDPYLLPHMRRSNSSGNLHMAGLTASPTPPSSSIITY", "outline": "as §1"}, "[1]": {"details": "read-out: % Enzyme Activity (relative to DMSO controls) AVG"}, "[2]": {"details": "read-out: % Enzyme Activity (relative to DMSO controls) Data 1"}, "[3]": {"details": "read-out: % Enzyme Activity (relative to DMSO controls) Data 2"}}, "note": "Read-outs that look alike come from different tables or passages of the source.", "data": [{"smiles": "CC(C)(C)C(=O)N1N=CC[C@H]1c1ccccc1", "note": "[GSK′963]", "values": [{"measurement": "remaining activity at 10 µM", "setting": "CDK9/cyclin T1; [1]", "result": 108, "unit": "%"}, {"measurement": "remaining activity at 10 µM", "setting": "CDK9/cyclin T1; [2]", "result": 112, "unit": "%"}, {"measurement": "remaining activity at 10 µM", "setting": "CDK9/cyclin T1; [3]", "result": 105, "unit": "%"}, {"measurement": "remaining activity at 10 µM", "setting": "MUSK; [1]", "result": 99.9, "unit": "%"}, {"measurement": "remaining activity at 10 µM", "setting": "MUSK; [2]", "result": 99.2, "unit": "%"}, {"measurement": "remaining activity at 10 µM", "setting": "MUSK; [3]", "result": 100, "unit": "%"}, {"measurement": "remaining activity at 10 µM", "setting": "TAOK3/JIK; [1]", "result": 98.2, "unit": "%"}, {"measurement": "remaining activity at 10 µM", "setting": "TAOK3/JIK; [2]", "result": 99.2, "unit": "%"}, {"measurement": "remaining activity at 10 µM", "setting": "TAOK3/JIK; [3]", "result": 97.3, "unit": "%"}, {"measurement": "remaining activity at 10 µM", "setting": "TLK1; [1]", "result": 97.5, "unit": "%"}, {"measurement": "remaining activity at 10 µM", "setting": "TLK1; [2]", "result": 101, "unit": "%"}, {"measurement": "remaining activity at 10 µM", "setting": "TLK1; [3]", "result": 93.9, "unit": "%"}]}]}
